In ChEMBL document CHEMBL1146998, “Cespitulactones A and B, new diterpenoids from Cespitularia taeniata” (Bioorg Med Chem Lett, 2006):
In brackets after ≈: the same amount, converted by molar mass.

Assays:
Assay type in all cases: functional, cell-based
[1] = test system: Daoy; test: Cytotoxicity against human Daoy cell line by MTT assay
[2] = test system: WiDr; test: Cytotoxicity against human WiDr cell line by MTT assay
[3] = test system: HeLa; test: Cytotoxicity against human HeLa cell line by MTT assay
[4] = test system: DLD-1; test: Cytotoxicity against human DLD1 cell line by MTT assay

| SMILES | IC50 [1] | IC50 [2] | IC50 [3] | IC50 [4] |
| --- | --- | --- | --- | --- |
| CC(=O)O[C@@H]1/C(C(C)C)=C\C=C(/C)CC/C=C(\C)CC[C@@H]2O[C@@]2(C)[C@H]1OC(C)=O | 16.9 µg/mL (≈ 41.8 µM) | 13.8 µg/mL (≈ 34.1 µM) | – | – |
| C=C1CC[C@@H]2CC[C@H](OC(=O)C/C(C)=C/[C@@H](O)C1)C(=O)C2(C)C [CESPITULACTONE A] | > 20 µg/mL | > 20 µg/mL | 3.69 µg/mL (≈ 11.5 µM) | 9.98 µg/mL (≈ 31.1 µM) |
| C=C1CC[C@@H]2CCC3=C(C(=O)[C@@H](/C(C)=C/[C@@H](OC(C)=O)C1)[C@H]3O)C2(C)C [CESPITULARIN J] | > 20 µg/mL | > 20 µg/mL | – | – |
| C=C1CC[C@@H]2CCC3=C(C(=O)[C@@H](/C(C)=C/C(O)C1)[C@H]3O)C2(C)C (stereo not given in full) [CESPITULARIN F] | > 20 µg/mL | > 20 µg/mL | – | – |
| C=C1CC[C@@H]2CC[C@H](OC(=O)C/C(C)=C/[C@@H](OC(C)=O)C1)C(=O)C2(C)C [CESPITULACTONE A MONOACETATE] | > 20 µg/mL | > 20 µg/mL | – | – |
| C=C1CC[C@@H]2CC[C@H](OC(=O)C/C(C)=C/[C@@H](OC(=O)c3ccc(Cl)cc3)C1)C(=O)C2(C)C | > 20 µg/mL | > 20 µg/mL | – | – |
| C=C1CC[C@@H]2CC[C@H](OC(=O)C/C(C)=C/[C@@H](OC(=O)c3ccccc3)C1)C(=O)C2(C)C | > 20 µg/mL | > 20 µg/mL | – | – |
| C=C1CC[C@@H]2CCC3=C(C2(C)C)[C@@](OC)(C/C(C)=C/[C@@H](O)C1)OC3=O [CESPITULACTONE B] | > 20 µg/mL | > 20 µg/mL | – | – |
| C=C1CC[C@@H]2CCC3=C(C2(C)C)[C@@](O)(C/C(C)=C/[C@@H](O)C1)OC3=O [CESPITULARIN D] | > 20 µg/mL | > 20 µg/mL | – | – |
